# Measured values reported in PMC5844530, “Fosmetpantotenate (RE-024), a phosphopantothenate replacement therapy for pantothenate kinase-associated neurodegeneration: Mechanism of action and efficacy in nonclinical models” (PLoS ONE, 2018).
# Several values for one entry are separate records, joined by “and”; a condition that tells them apart may be missing. Identical values can stand only once. Entries after “also recorded” stand apart in the source; their conditions may differ.
# System: shRNA PanK2 knockdown human neuroblastoma IMR32 cells
# Test: Intracellular CoA levels in shRNA PanK2 knockdown human neuroblastoma cells
# Type: cell-based
# Settings: for Area Ratio, biological replicates 1-3 / Area Ratio, Mean / CoASH Fold Increase, Mean: Figure 3 data; for Area Ratio, biological replicates 1-3: PANK2-/- cells; for CoASH Fold Increase, Mean: over vehicle (1.00); for CoASH Area ratio / Total CoA Area ratio: Figure 4 data, 1 µM fosmetpantotenate, each line a biological replicate (well), analyzed 3 times
# Procedure: The in vitro model to evaluate the efficacy of fosmetpantotenate and analogs was developed using a human neuroblastoma IMR32 cell line (ATCC) with stable PanK2 knockdown through lentiviral-delivered shRNA [23]. […] Cells were cultured in minimal essential media (MEM; Invitrogen), supplemented with 10% fetal bovine serum, 2 mM glutamine, 1% penicillin-streptomycin, 1 mM sodium pyruvate, 1 mM non-essential amino acids, 1.5 g/L sodium bicarbonate, and 1 μg/mL puromycin. […] At the end of the time period, cells were harvested, counted, collected in a 15 mL falcon tube, and centrifuged at 200xg for 5 min at 4°C.
# For all incubations, the supernatant was removed and the cell pellet was resuspended in 10 mL of ice-cold phosphate buffered saline. […] The supernatant (100 μL) was placed in a separate tube and dried under nitrogen at 20°C in the dark. Samples were reconstituted with ammonium acetate buffer (pH 5.1) containing dextrorphan (50 ng/mL) as the internal standard, stirred for 2 min, sonicated in an ultrasonic bath for 1 min, and stirred again for 1 min before liquid chromatography-tandem mass spectrometry (LC-MS/MS) analysis for determination of intracellular CoA levels. Intracellular CoA concentration was calculated considering an intracellular volume of 10^6 cells equal to 2 μL. The measurement of the intracellular volume of cultured cells was performed following the distribution of [^14C]urea and [^14C]mannitol with time.
# Coenzyme A determinations: An Agilent 1100 high-performance liquid chromatography (HPLC) system with a CTC PAL autosampler was used. Samples were chromatographed on a Phenomenex Luna C18 column (50 x 2.0 mm; 5 μm), with a 0.2 mL/min flow rate and a […] injection volume in a 5 μL injection loop. The mobile phases were (A) 10 mM ammonium acetate in water and (B) acetonitrile:2-propanol (9:1; v:v). […] A Sciex API 4000 QTrap mass spectrometer, connected to the HPLC system in tandem, with an electrospray ionization source operating in the positive scanning mode, was used for multiple reaction monitoring (MRM). […] The statistical significance of the treatment was determined using a t-test.
compound,measurement,setting,value
COC(=O)CCNC(=O)[C@H](O)C(C)(C)COP(=O)(N[C@@H](C)C(=O)OC)Oc1ccccc1 (mixture of isomers) [Fosmetpantotenate],change in the level of free CoA,1 μM TID for 5 days,little change; also recorded: little effect
same,"Area Ratio, biological replicates 1-3",compound conc 12.5 µM,0.109 and 0.098 and 0.112
same,"Area Ratio, biological replicates 1-3",compound conc 25 µM,0.141 and 0.129 and 0.135
same,"Area Ratio, biological replicates 1-3",compound conc 50 µM,0.159 and 0.189 and 0.167
same,"Area Ratio, biological replicates 1-3",compound conc 100 µM,0.157 and 0.186 and 0.139
same,"Area Ratio, biological replicates 1-3",compound conc 200 µM,0.243 and 0.294 and 0.241
same,"Area Ratio, Mean",concentration 12.5 µM,0.081
same,"Area Ratio, Mean",concentration 25 µM,0.111
same,"Area Ratio, Mean",concentration 50 µM,0.141
same,"Area Ratio, Mean",concentration 100 µM,0.127
same,"Area Ratio, Mean",concentration 200 µM,0.216
same,"CoASH Fold Increase, Mean",concentration 25 µM,1.25
same,"CoASH Fold Increase, Mean",concentration 50 µM,2.00
same,"CoASH Fold Increase, Mean",concentration 100 µM,2.27
same,"CoASH Fold Increase, Mean",concentration 200 µM,2.41
same,CoASH Area ratio,Day 1,0.0013 (2×) and 0.0014 and 0.0011 and 0.0012 (2×) and 0.0018 and 0.0019 (2×)
same,Total CoA Area ratio,Day 1,0.0238 and 0.0248 and 0.0256 and 0.0250 and 0.0258 and 0.0229 and 0.0233 and 0.0235
same,CoASH Area ratio,Day 3,0.0035 and 0.0037 (2×) and 0.0024 and 0.0025 and 0.0026 and 0.0022 and 0.0023 (2×)
same,Total CoA Area ratio,Day 3,0.0360 and 0.0361 and 0.0365 and 0.0359 and 0.0368 and 0.0185 and 0.0353 and 0.0367
same,CoASH Area ratio,Day 5,0.0029 and 0.0031 (2×) and 0.0024 (2×) and 0.0025 and 0.0019 and 0.0020 (2×)
same,Total CoA Area ratio,Day 5,0.0314 and 0.0330 (2×) and 0.0343 and 0.0336 and 0.0342
